From ChEMBL document CHEMBL1157539, “Thousands of chemical starting points for antimalarial lead identification” (Nature, 2010)

System: Plasmodium falciparum
Assay: GSK_TCMDC: Inhibition of Plasmodium falciparum 3D7 in whole erythrocytes, using parasite LDH activity as an index of growth.
Type: functional, organism-based
Conditions: Plasmodium falciparum, 3D7

In the case of `CCc1ccc2nc(-c3ccc(F)cc3)nc(SCC(=O)Nc3sc(C)c(C)c3C#N)c2c1`, the XC50 is reported as 643 nM.
`Clc1ccc2nccc(N3CCC(CN4CCC(c5c[nH]c6ccccc56)CC4)CC3)c2c1` was tested, and the XC50 was 33.9 nM.
Molecule `Cc1ccc(C(=O)Nc2ccc(Nc3ccnc4cc(-c5ccncc5)ccc34)cc2O)cc1` has an XC50 of 929 nM.
Molecule `O=C(NCc1ccccc1)Nc1ccc(-c2cccc(-c3nc4cc(C(F)(F)F)ccc4[nH]3)c2)cc1` has an XC50 of 662 nM.
`COc1cc(CNCCCNc2cc(=O)c3ccccc3[nH]2)c2c(c1)C(C)CN2C(=O)OC(C)(C)C` (stereo not drawn) gave an XC50 of 734 nM.
For `Cc1cc2c(/C=C/C(=O)NC3CCC(CCN4CCc5ccc(C#N)cc5CC4)CC3)cccc2[nH]1` (stereo not drawn), the XC50 was 840 nM.
With `N=C(/N=C(/NCCCCCCN/C(=N\C(=N)Nc1ccc(Cl)cc1)N1CCCCC1)N1CCCCC1)Nc1ccc(Cl)cc1` the XC50 was 256 nM.
Work on `CC1CN(Cc2ccc(-c3ccc(-c4nc5cc(F)ccc5[nH]4)cc3)cc2)CC(C)O1` (stereo not drawn) yielded an XC50 of 564 nM.
For `COc1cccc2cc(C(=O)N[C@@H](CC(C)C)C(=O)N[C@H](/C=N/NC(=O)Cc3cccnc3)CCc3ccccc3)oc12`, the XC50 was 951 nM.
In the case of `O=C(NC1CCCCC1)N(Cc1ccc(-c2cccc(CNC3CCCC3)c2)cc1)C1CCN(Cc2ccccc2)CC1`, the XC50 is reported as 785 nM.
With `CCOC(=O)c1ccc(N2CCCCC2)c(NC(=O)C(Cl)(Cl)Cl)c1` the XC50 was 849 nM.
`CC1CCN(Cc2ccc(NC(=O)c3cc4ccc5cccnc5c4[nH]3)cc2)CC1` showed an XC50 of 779 nM.
Molecule `CCCN(CCC)CCCOc1ccc(C(=O)c2c(-c3ccc(OCCCN(CCC)CCC)cc3)oc3ccc(Cl)cc23)cc1` has an XC50 of 340 nM.
`COc1ccc(-c2cc3nc4c(c(NCCCn5ccnc5)n3n2)CCCC4)cc1` was tested, and the XC50 was 730 nM.
`COc1cccc(C2CCCN(CCCCNC(=O)c3ccc(NC(=O)c4ccc(Cl)cc4)cc3)C2)c1` (stereo not drawn) was tested, and the XC50 was 864 nM.
Molecule `COc1ccc(CCCON2C(=N)N=C(N)NC2(C)C)cc1` has an XC50 of 3.2 nM.
For `CCOc1cc2ncnc(Nc3ccc(OCc4ccccc4Br)c(OC)c3)c2cc1OCC`, the XC50 was 467 nM.
With `Cc1ccnc(NC(c2cccc(Cl)c2Cl)c2ccc3cccnc3c2O)c1` (stereo not drawn) the XC50 was 1000 nM.
`Cc1cc(C(F)(F)F)n2nc(C(=O)N(C)Cc3cncn3Cc3ccc(F)cc3)cc2n1` showed an XC50 of 832 nM.
`Cc1cc(-c2nc3cncc(-c4cccc(CN5CCCC5Cc5cccnc5)c4)c3n2C)nn1C` (stereo not drawn) showed an XC50 of 132 nM.
For `O=c1c2ccccc2[nH]c2cc(Cl)ccc12`, the XC50 was 873 nM.
Molecule `Cc1cccc2nc(-c3ccc(-c4cccc(CNCC5CCCO5)c4)cc3)[nH]c12` (stereo not drawn) has an XC50 of 700 nM.
For `Cc1cccc2nc(-c3cccc(-c4ccc(NC(=O)C(C)C(=O)NC(C)C)cc4)c3)[nH]c12` (stereo not drawn), the XC50 was 1000 nM.
In the case of `O=C(Nc1ccc(CCNCCCc2ccccc2)cc1)Nc1ccc(Cl)c(Cl)c1`, the XC50 is reported as 273 nM.
Work on `CCc1cc(Br)c(CNCCCNc2cc(=O)c3ccccc3[nH]2)s1` yielded an XC50 of 949 nM.
`O=C(/C=C/c1ccc(Cl)c(Cl)c1)NCCCCCN1CCC(C(=O)Nc2cccc(Cl)c2)CC1` showed an XC50 of 681 nM.
In the case of `O=C(NCCCNc1ccc2ccccc2n1)c1cc2c(Cl)cc(Cl)cc2[nH]1`, the XC50 is reported as 604 nM.
In the case of `O=C(NCc1ccc(F)cc1)Nc1ccc(-c2cccc(-c3nc4cc(F)ccc4[nH]3)c2)cc1`, the XC50 is reported as 1120 nM.
In the case of `O=S(=O)(NC1CCCCN(Cc2ccccc2O)C1)c1ccc(C(F)(F)F)cc1` (stereo not drawn), the XC50 is reported as 1300 nM.
In the case of `COc1cc2nc(NCC3CCN(C(=O)c4ccc(-c5ccc(C(=O)N(C)C)cc5C)cc4)CC3)nc(N)c2cc1OC`, the XC50 is reported as 948 nM.
With `CCNC(=O)N1CCc2ccc(Oc3nc(NCc4ccccc4OC)ncc3C)cc2CC1` the XC50 was 1070 nM.
`Cc1ccc(Cc2c(N)nc3nc(N)nc(N)c3c2C)cc1` showed an XC50 of 188 nM.
`O=C(Nc1ccccc1)NC1CCN(CCC2(c3ccc(Cl)c(Cl)c3)COCN(C(=O)c3ccccc3)C2)C1` (stereo not drawn) showed an XC50 of 880 nM.
`O=C(Nc1ccc(-c2nc3ccccc3[nH]2)cc1)c1ccc(S(=O)(=O)N2CCCCCC2)cc1` gave an XC50 of 411 nM.
`O=C(Nc1cccc(-c2cc(-c3c(Cl)cccc3Cl)no2)c1)c1cnc2ccccc2c1` showed an XC50 of 1100 nM.
`O=C(NCCN1CCCC1)N1CCCN(c2ncnc3cc(-c4ccc(F)cc4)sc23)CC1` gave an XC50 of 902 nM.
Work on `C[C@H](Cc1ccc(OCCCCOc2ccc(C[C@@H](C)NC[C@H](O)c3cccc(Cl)c3)cc2)cc1)NC[C@H](O)c1cccc(Cl)c1` yielded an XC50 of 756 nM.
Work on `O=C(Nc1ccc(Cl)c(Cl)c1)Nc1ccc2c(c1)CCNCC2` yielded an XC50 of 532 nM.
With `COc1ccccc1/C=C/C(=O)NC1CCC(CCN2CCc3ccc(-c4cc(C)no4)cc3CC2)CC1` (stereo not drawn) the XC50 was 961 nM.
In the case of `CC1CCC(NCc2c(O)ccc3ccccc23)CC1` (stereo not drawn), the XC50 is reported as 772 nM.
`CN(CC(=O)Nc1cc(C(F)(F)F)ccc1-n1cncn1)Cc1ccc2ccccc2c1` was tested, and the XC50 was 232 nM.
For `CC(C)c1ncc(-c2ccncc2)c(C2CCC(CNC(=O)c3ccncc3)CC2)n1` (stereo not drawn), the XC50 was 1350 nM.
With `COc1ccc2nccc([C@@H](O)CN3CCC(NCc4ccc5sc(=O)[nH]c5c4)CC3)c2c1` the XC50 was 287 nM.
With `CCCCN(CCCC)/C(=N/c1cccc(Cl)c1Cl)Nc1ccc(C#N)cc1O` the XC50 was 853 nM.
`CC(Cc1ccc(C(=O)Nc2ccc(CC(C)NCCc3cccc(Cl)c3)cc2)cc1)NCCc1ccc(C(F)(F)F)cc1` (stereo not drawn) gave an XC50 of 570 nM.
Molecule `FC(F)(F)c1ccc(CNCC2CCN(Cc3ccc4c(c3)OCO4)CC2)cc1` has an XC50 of 1360 nM.
With `CC[C@H](C)CNC(=O)c1cncc(-c2ccc(CNCC3CNCCCO3)cc2)c1` (stereo partly drawn) the XC50 was 1020 nM.
`CCNc1cc(C(=O)N[C@@H](Cc2cccc(F)c2)[C@H](O)CNC(C)CCCC(C)C)cc(N2CCCCS2(=O)=O)c1` (stereo partly drawn) gave an XC50 of 596 nM.
`Cc1cc(N2CCN(C)CC2)nc2ccc(NC(=O)c3cccc(N(C)C)c3)cc12` was tested, and the XC50 was 954 nM.
`Cc1cccc2nc(-c3ccc(-c4ccc(CN5CCN(c6ccncc6)CC5)cc4)s3)[nH]c12` gave an XC50 of 114 nM.
In the case of `O=C(O)c1cc(OCC(O)COc2ccc(O)c(C(=O)O)c2)ccc1O`, the XC50 is reported as 227 nM.
Molecule `COc1cc(/C=C/C(=O)NC2CCC(N3CCC(c4ccccc4C)CC3)CC2)cc(OC)c1` (stereo not drawn) has an XC50 of 979 nM.
With `CCc1cn2c3c(cc(C(=O)N[C@@H](Cc4ccccc4)[C@H](O)CNC4CCOCC4)cc13)N(C)S(=O)(=O)C2` the XC50 was 87.7 nM.
Work on `C#CCNC(=O)c1ccc(-c2ccnc(Nc3cccc(CCCN4CCOCC4)c3)n2)s1` yielded an XC50 of 1000 nM.
`Cc1cc(N[C@@H](CC(C)C)C(=O)NCCc2ccccc2)nc(Nc2ccccc2)n1` gave an XC50 of 816 nM.
`CCOc1c(Br)cc(Br)cc1CNCCCCNc1nc2ccccc2[nH]1` showed an XC50 of 394 nM.
For `CN1CCc2cc(CN3CC4(C)CC3CC(C)(C)C4)c(O)cc2C(c2ccccc2)C1` (stereo not drawn), the XC50 was 720 nM.
Work on `Cc1[nH]c(CNCCCNc2cc(=O)c3ccccc3[nH]2)c(Br)c1Br` yielded an XC50 of 1040 nM.
Molecule `CCN(CC)/C(=N/C(=N)NCc1ccc(Cl)cc1Cl)NCCCCCCN/C(=N\C(=N)NCc1ccc(Cl)cc1Cl)N(CC)CC` has an XC50 of 218 nM.
With `CCCCC(=O)Nc1nonc1-c1ccc(OCC)c(OCC)c1` the XC50 was 912 nM.
With `Cc1cccc(Oc2cccc3[nH]nc(N)c23)c1` the XC50 was 1040 nM.
With `O=C(NC1CCN(CCN2CCC(c3c[nH]c4ccccc34)CC2)CC1)c1ccc(-c2ccc(C(F)(F)F)cc2)cc1` the XC50 was 205 nM.
In the case of `O=c1[nH]ccc2nc(N[C@@H]3CCNC3)nc(Nc3cccc(S(=O)(=O)N4CCOCC4)c3)c12`, the XC50 is reported as 1230 nM.
`CN(C)CCNc1nccc(N2CCc3ncnc(Nc4ccc(OCc5cccc(F)c5)c(Cl)c4)c3C2)n1` was tested, and the XC50 was 138 nM.
With `NS(=O)(=O)c1ccc(Nc2nccc(-c3c(-c4cccc(NC(=O)c5c(F)cccc5F)c4)nn4ccccc34)n2)cc1` the XC50 was 762 nM.
`O=c1cc(NCCCNC2CCCc3c2ccc2ccccc32)[nH]c2ccccc12` (stereo not drawn) showed an XC50 of 824 nM.
In the case of `CC(=O)Nc1ncc(C(=O)Nc2ccc(-c3cccc(-c4nc5cc(C(F)(F)F)ccc5[nH]4)c3)cc2)s1`, the XC50 is reported as 260 nM.
`CC(C)NCC(=O)Nc1cccc(C(=O)Nc2cccc(C(F)(F)F)c2)c1` was tested, and the XC50 was 273 nM.
For `CCC(O)(C#Cc1c(C)nc(N)nc1N)CC`, the XC50 was 639 nM.
Work on `Cc1nn(C)cc1C(C)Nc1nncc(-c2ccc(C(F)(F)F)cc2)n1` (stereo not drawn) yielded an XC50 of 246 nM.
Work on `COCCCNC(=O)C1CCN(C(c2ccc(Cl)cc2)c2ccc(Cl)cc2)CC1` yielded an XC50 of 920 nM.
Work on `Cc1cccc2nc(-c3cccc(-c4ccc(NC(=O)c5cnccc5C(F)(F)F)cc4)c3)[nH]c12` yielded an XC50 of 695 nM.
With `O=C(NCC1CCN(Cc2ccsc2)C1)c1cc(-c2cccc(C(F)(F)F)c2)cs1` (stereo not drawn) the XC50 was 700 nM.
`CCN(CCCN1CCCCC1)c1cc(C)nc(Nc2ccc(C)c(C)c2)n1` showed an XC50 of 1020 nM.
In the case of `O=c1ccc2ccc(F)c3c2n1CC3CN1CCC(NCc2cccc(-c3ccccc3F)c2)CC1` (stereo not drawn), the XC50 is reported as 1100 nM.
`COc1ccccc1NC(=O)Nc1ccc(-c2ccc(-c3nc4cccc(C)c4[nH]3)s2)cc1` was tested, and the XC50 was 158 nM.
Molecule `CN(C)CC1c2[nH]c3ccccc3c2CCN1C(=O)Nc1ccc(Cl)c(Cl)c1` (stereo not drawn) has an XC50 of 1210 nM.
With `Oc1cccc(CCNCCCCCCNCCc2ccc(Cl)cc2)c1` the XC50 was 774 nM.
With `Cc1sc(NC(=O)Cc2cccc(C(F)(F)F)c2)nc1-c1cccc(Cl)c1` the XC50 was 470 nM.
`O=S1(=O)NCc2ccc(Nc3nccc(Nc4ccc5c(cnn5Cc5ccccc5)c4)n3)cc21` gave an XC50 of 750 nM.
Molecule `Cc1nn(CC(C)C)c2sc(C(=O)N3CCN(S(=O)(=O)c4ccc(C#N)cc4)CC3)cc12` has an XC50 of 739 nM.
Molecule `Cc1ccoc1C(=O)Nc1cccc(-c2cccc(-c3nc4ccccc4[nH]3)c2)c1` has an XC50 of 1220 nM.
For `Cc1ccc(C2=NNC3(S2)C(=O)N(C)c2ccccc23)cc1` (stereo not drawn), the XC50 was 1020 nM.
In the case of `CCCCCCOc1ccc(/C(N)=N\Cc2ccccc2)c2c1CCCC2`, the XC50 is reported as 1270 nM.
`CCCCCCCOc1ccc(NC(=O)Nc2ccc(Cn3ncc(N4CCCNCC4)c(Cl)c3=O)cc2)cc1` showed an XC50 of 923 nM.
For `CC1CCN(c2nc(C(=O)Nc3cccc4c3CCCC4)c(C(C)C)s2)CC1`, the XC50 was 1040 nM.
In the case of `Cc1cccc2nc(-c3ccc(-c4cccc(CNCCNC(=O)c5ccnn5C)c4)cc3)[nH]c12`, the XC50 is reported as 396 nM.
With `Cc1nc2nc(N)nc(N)c2c(C)c1Cc1ccccc1` the XC50 was 248 nM.
`O=[N+]([O-])c1cccc(CNCC2CCC(CNCc3cccc([N+](=O)[O-])c3)CC2)c1` (stereo not drawn) was tested, and the XC50 was 138 nM.
Molecule `CCCCN(CCCC)CCCN(CCCN(CCCC)CCCC)c1cc(C)nc(Nc2ccc3cc(Br)ccc3c2)n1` has an XC50 of 320 nM.
Molecule `Cc1cccc2nc(-c3ccc(-c4ccc(NC(=O)NCc5ccc(F)cc5)cc4)cc3)[nH]c12` has an XC50 of 1330 nM.
`CC(CCCC(=O)Nc1ccc(CC(C)NCCc2cccc(Cl)c2)cc1)NCCc1cccc(Cl)c1` (stereo not drawn) was tested, and the XC50 was 625 nM.
For `Cc1c(CCc2cccc(F)c2F)[nH]c2ccccc2c1=O`, the XC50 was 822 nM.
Molecule `c1ccc(-n2cncn2)cc1` has an XC50 of 591 nM.
For `CCOc1cccc(C(=O)Nc2nonc2-c2ccc(OC)c(OC)c2)c1`, the XC50 was 1020 nM.
Work on `Oc1ccc(Nc2nc(NCc3ccccc3)c3ccccc3n2)cc1` yielded an XC50 of 192 nM.
With `COc1ccc(NC(=O)C2c3ccccc3C(=O)N(C3CCCC3)C2c2cccs2)cc1OC` (stereo not drawn) the XC50 was 1090 nM.
For `CCN(CCCN1CCCCC1)c1nc(C)cc(Nc2ccc(Cl)cc2)n1`, the XC50 was 837 nM.
